Test results published in PubChem BioAssay (NCI).
Where “and” joins values, the source holds several entries; their conditions need not be identical. Equal values may be shown once.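 Following 48 hours of exposure in 96-well plates, responses at five concentrations were used to interpolate endpoints linearly. Here, GI50 denotes the concentration required for 50% inhibition of growth. TGI marks complete inhibition of growth.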

Assays:
Experiment in all cases: NCI tumour cell line growth inhibition, 48 h
[1] = tested on: A549 NSCLC
[2] = tested on: NCI/ADR-RES ovarian
[3] = tested on: BT-549 breast
[4] = tested on: IGROV1 ovarian
[5] = tested on: SK-MEL-2 melanoma
[6] = tested on: OVCAR-5 ovarian
[7] = tested on: OVCAR-8 ovarian
[8] = tested on: HL-60(TB) leukemia
[9] = tested on: SF-295 CNS
[10] = tested on: HOP-62 NSCLC

Row | SMILES | TGI [1] | TGI [2] | GI50 [3] | TGI [3] | GI50 [4] | TGI [4] | GI50 [5] | TGI [5] | TGI [6] | TGI [7] | TGI [8] | TGI [9] | TGI [10] | GI50 [1] [µM] | GI50 [2] [µM] | GI50 [6] [µM] | GI50 [7] [µM] | GI50 [8] | GI50 [9] [µM] | GI50 [10] [µM]
1 | C=C1C(=O)OC2CC1C(OC(C)=O)C/C(C)=C/CC/C(C)=C\CCC2(C)O (centres undefined) | 33.2 µM and 51.1 µM | 15.4 µM and 17.4 µM | 4.31 µM and 2.05 µM | 15.5 µM and 5.35 µM | 3.34 µM and 6.68 µM | 14.5 µM and 20.1 µM | 8.67 µM and 21.4 µM | 22.5 µM and > 100 µM | 46.3 µM and 30 µM | 14.6 µM and 12.6 µM | 2.64 µM | 46.8 µM and 37 µM | 35.4 µM and 31.7 µM |  |  |  |  |  |  | 
2 | CS(=N)(=O)CCC(N)P(=O)(O)O (centres undefined) | > 100 µM | > 100 µM |  | > 100 µM |  | > 100 µM |  | > 100 µM | > 100 µM | > 100 µM | > 100 µM | > 100 µM | > 100 µM |  |  |  |  |  |  | 
3 | O=C(Cc1ccc(Nc2ccnc(C(F)(F)F)c2)cc1)N/N=C/c1ccccc1O | > 100 µM | 33 µM | 2.43 µM | > 39.2 µM | 2.35 µM | > 24.7 µM | 3.12 µM | 24.5 µM | > 83.1 µM | > 69.4 µM | 5.44 µM | 38 µM | > 48.6 µM | 4.49 | 2.83 | 7.62 | 3.15 | 1.9 µM | 2.72 | 3.08
4 | O=C(O)CNCCc1ccccc1 | > 100 µM | > 100 µM |  | > 100 µM |  | > 100 µM |  | > 100 µM | > 100 µM | > 100 µM | > 100 µM | > 100 µM | > 100 µM |  |  |  |  |  |  | 
5 | CCCOc1ccc(/C=N/Nc2cc(C)nc3ccc(Cl)cc23)cc1 | 3.35 µM | 3.81 µM | 2.17 µM | 5.46 µM | 1.92 µM | 3.63 µM | 1.73 µM | 3.22 µM | 3.28 µM | 4.53 µM | 3.78 µM | 3.2 µM | 2.98 µM | 1.72 | 1.9 | 1.87 | 2.31 | 1.83 µM | 1.72 | 1.58
6 | C/C(=N\O)c1cccc(Nc2cc(-c3ccccc3)nc3c(O)cccc23)c1 | 23.5 µM | > 23.5 µM | 11.8 µM | 52.3 µM | 2.41 µM | 18 µM | 8.34 µM | 27.2 µM | 32.2 µM | 39 µM | > 66.3 µM |  | 15 µM | 2.37 | 1.37 | 12.5 | 4.24 | 4.71 µM | 0.671 | 3.09
7 | O=C(O)c1ccc(C(=O)O)c(C(=O)O)c1.[NH-]C1CCCCC1[NH-].[Pt+2] | 39 µM | 60.5 µM | 23.8 µM | 54.2 µM | 4.57 µM | 44.6 µM | 14.3 µM | 61.4 µM | 35.5 µM | 60.8 µM | 18.8 µM | 68.6 µM | > 74.4 µM | 1.87 | 3.56 | 6.32 | 2.92 | 0.735 µM and 4.08 µM | 5.52 | 11.7
8 | N#C/C(=C\c1ccc(F)cc1)n1nc2cccc(F)c2n1 | > 100 µM | 14.8 µM | 4.72 µM | > 100 µM | 5.01 µM | > 100 µM | 5.26 µM | > 100 µM | > 100 µM | > 100 µM | 7.68 µM | > 100 µM | > 100 µM | 4.01 | 2.99 | 5.04 | 5.06 | 2.69 µM | 3.53 | 3.54
9 | CC(C)OCc1cc(CN2CCN(c3cccc(Cl)c3)CC2)c(O)c2ncccc12 | 11.9 µM | 10.6 µM | 3.26 µM | 19.8 µM | 0.621 µM | 16.6 µM | 1.74 µM | 7.07 µM | 15.1 µM | 11.6 µM | 2.84 µM | 11.6 µM | 6.54 µM | 0.512 | 0.203 | 3.6 | 0.367 | 0.388 µM | 1.07 | 0.431
10 | Oc1ccc(Cc2ccc(O)c(C3CC(c4ccc(Cl)cc4)=NN3)c2)cc1C1CC(c2ccc(Cl)cc2)=NN1 (centres undefined) | > 100 µM | > 34.5 µM | 4.19 µM | 23.3 µM | 3.69 µM | > 72.3 µM | 2.96 µM | 10.5 µM | > 35.7 µM | > 42.4 µM | > 100 µM | > 42.9 µM | > 45.2 µM | 2.79 | 2.54 | 4.45 | 2.87 | 2.73 µM | 2.39 | 3.81
11 | CCOC(=O)[C@@H](C)C[C@H](Cc1ccccc1)NC(=O)c1csc([C@@H](C[C@H](C(C)C)N(C)C(=O)[C@@H](NC(=O)[C@H]2C[C@H](O)CCN2C)C(C)C)OC(C)=O)n1 | > 16.7 µM | > 16.7 µM | 0.00283 µM | 0.0915 µM | 0.00209 µM | > 16.7 µM | 0.00243 µM | > 16.7 µM | > 16.7 µM | > 16.7 µM | 0.012 µM | > 16.7 µM | > 16.7 µM | 0.0356 | 2.67 | 0.015 | 0.0166 | 0.00278 µM | 0.00781 | 0.0146
12 | CCN(CC)CC(O)COc1c(Br)c(Br)c(Br)c2c1OC(C)(C)C2 (centres undefined) | 13.5 µM | 25.5 µM | 4.5 µM | 17.6 µM | 1.91 µM | 5.83 µM | 3.55 µM | 15.4 µM | 23.8 µM | 36.7 µM | 3.53 µM | 2.71 µM | 19.7 µM | 3.49 | 7.69 | 7.68 | 11.4 | 1.73 µM | 1.1 | 4.03
13 | NC(=N\N=C/c1ccc(Cl)cc1Cl)/C(N)=N\N=C/c1ccc(Cl)cc1Cl | > 100 µM | > 100 µM | 45.3 µM | > 93.2 µM | 4 µM | > 100 µM | > 57.1 µM | > 93.6 µM | > 100 µM | > 100 µM | > 100 µM | 89.8 µM | 38.7 µM | 5.99 | 38.7 | > 100 | 20.7 | > 100 µM | 2.84 | 15.1
14 | O=C(O)c1ccc(Oc2nc3ccccc3s2)cc1 | > 100 µM | > 100 µM |  | > 100 µM |  | > 100 µM |  | > 100 µM | > 100 µM | > 100 µM | > 100 µM | > 100 µM | > 100 µM |  |  |  |  |  |  | 
15 | O=Cc1ccc(-c2ccc(-c3ccc(C=O)o3)[se]2)o1 | > 100 µM | > 100 µM | > 100 µM | > 100 µM | > 65.9 µM | > 100 µM | > 100 µM | > 100 µM | > 100 µM | > 100 µM | > 100 µM | > 65.6 µM | > 100 µM | > 100 | > 100 | > 85.2 | > 100 | > 100 µM | > 46.2 | 57.5
16 | CCC(C)CC(C)C(=O)c1c(O)ccn(O)c1=O (centres undefined) | 36.3 µM | 5.15 µM | 2.56 µM | 37.9 µM | 3.18 µM | 28.1 µM | 3.63 µM | 48.6 µM | > 100 µM | > 100 µM | 12.6 µM | 49.6 µM | > 100 µM | 1.78 | 0.395 | 23.7 | 0.626 | 0.473 µM | 5.22 | 1.98
17 | FC(F)(F)c1cc(-c2ncn(/C=C\c3nnco3)n2)cc(C(F)(F)F)c1 | > 42.3 µM | > 63.5 µM | 0.0719 µM | 2.44 µM | 0.676 µM | > 100 µM | 0.031 µM | 0.251 µM | > 63.3 µM | > 47.7 µM | 13.4 µM | > 43.3 µM | 28.3 µM | 0.0586 | 0.304 | 0.267 | 0.0589 | 0.0485 µM | 0.0634 | 0.282
18 | CC1(C)OC2C(CO)OC(n3ccc(N)nc3=O)C2O1 (centres undefined) | > 100 µM | > 100 µM |  | > 100 µM |  | > 100 µM |  | > 100 µM | > 100 µM | > 100 µM | > 100 µM | > 100 µM | > 100 µM |  |  |  |  |  |  | 
19 | CCOC(=O)Nc1ccc2c(c1)N(C(=O)CCN(CC)CC)c1ccccc1S2 | 125 µM | 86.8 µM |  | 97.2 µM | 64 µM | > 94.1 µM and 138 µM | 30.5 µM | 43.6 µM and 83.7 µM | 99.9 µM and 178 µM | 2.5 µM | 45.9 µM and 57.7 µM | 54.4 µM | 134 µM | 58.3 |  | 101 | 1.51 | 16.1 µM |  | 44.2
